Results: US8937078B2, “Quinazolinones as prolyl hydroxylase inhibitors” (Janssen Pharmaceutica NV, priority 2009, dated 2015)

How the values were obtained:
[1] = test system: Hep-3B cells; experiment: Cellular assay: erythropoietin secretion in Hep-3B cells; assay type: cell-based, human; conditions: Homo sapiens, Hep3B, 100 μM compound, 24 hours, percent of EPO secretion relative to assay control compound 7-[(4-Chloro-phenyl)-(5-methyl-isoxazol-3-ylamino)-methyl]-quinolin-8-ol, read-out: Cellular % EPO Stimulation
Outline: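 Hep-3B cells in DMEM with 10% FBS, treated 24 h after plating with compounds at 100 μM final for a further 24 h. Secreted EPO in supernatant measured by MSD electrochemiluminescence sandwich immunoassay with anti-EPO detection antibody.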

[2] = biological target: T1, human PHD2 (PHD2181-417) (Homo sapiens, UniProt Q9GZT9); experiment: PHD enzymatic assay ([14C]-succinic acid production); assay type: biochemical; conditions: PHD2181-417, HIF-1α peptide 10 μM, average of results; read-out: Enzyme pIC50 (converted)
T1 construct: Smt (SUMO) tag (cleaved yes); made in house; host or cells: E. coli BL21 (pBAD vector)
T1 sequence (Q9GZT9 181-417): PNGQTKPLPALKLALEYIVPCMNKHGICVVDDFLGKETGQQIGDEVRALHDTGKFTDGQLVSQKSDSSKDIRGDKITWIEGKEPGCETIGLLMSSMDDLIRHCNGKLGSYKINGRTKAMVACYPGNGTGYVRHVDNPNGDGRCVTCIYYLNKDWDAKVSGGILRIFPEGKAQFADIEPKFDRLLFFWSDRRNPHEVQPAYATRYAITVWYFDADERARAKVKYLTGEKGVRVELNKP
Outline: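 Activity measured as [14C]-succinic acid formed from [5-14C]-2-oxoglutarate over 10 minutes, with peptide substrate at 10 μM, in Tris-HCl pH 7.5 buffer containing catalase, DTT and ascorbate. Unreacted oxoglutarate removed by DNP derivatisation; supernatant beta-counted.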

SMILES	IC50 [2] [nM]	Emax at 100 µM [1] [%]
O=C(O)c1cnn(-c2nc3c4c(ccc3c(=O)[nH]2)OCCO4)c1 [Example 138, 1-(8-Oxo-2,3,7,8-tetrahydro-1,4-dioxa-5,7-diaza-phenanthren-6-yl)-1H-pyrazole-4-carboxylic acid]	251	40
O=C(O)c1cnn(-c2nc3c(Oc4ccccc4)cccc3c(=O)[nH]2)c1 [Example 112, 1-(4-Oxo-8-phenoxy-3,4-dihydro-quinazolin-2-yl)-1H-pyrazole-4-carboxylic acid]	158	18
C#Cc1ccc2nc(-n3cc(C(=O)O)cn3)[nH]c(=O)c2c1 [Example 76, 1-(6-Ethynyl-4-oxo-3,4-dihydro-quinazolin-2-yl)-1H-pyrazole-4-carboxylic acid]	31.6	16
O=C(O)c1cnn(-c2nc3cc(Cl)c(SC(F)(F)F)cc3c(=O)[nH]2)c1 [Example 159, 1-(7-Chloro-4-oxo-6-trifluoromethylsulfanyl-3,4-dihydro-quinazolin-2-yl)-1H-pyrazole-4-carboxylic acid]	25.1	16
CSc1ccc2nc(-n3cc(C(=O)O)cn3)[nH]c(=O)c2c1 [Example 155, 1-(6-Methylsulfanyl-4-oxo-3,4-dihydro-quinazolin-2-yl)-1H-pyrazole-4-carboxylic acid]	31.6	40
CCc1ccccc1-c1ccc2nc(-n3cc(C(=O)O)cn3)[nH]c(=O)c2c1 [Example 203, 1-[6-(2-Ethyl-phenyl)-4-oxo-3,4-dihydro-quinazolin-2-yl]-1H-pyrazole-4-carboxylic acid]	31.6	77
Cc1cccc2c(=O)[nH]c(-n3cc(C(=O)O)cn3)nc12 [Example 9, 1-(8-Methyl-4-oxo-3,4-dihydro-quinazolin-2-yl)-1H-pyrazole-4-carboxylic acid]	79.4	49
O=C(O)c1cnn(-c2nc3cc(I)ccc3c(=O)[nH]2)c1 [Example 208, 1-(7-Iodo-4-oxo-3,4-dihydro-quinazolin-2-yl)-1H-pyrazole-4-carboxylic acid]	126	20
CC(C)(C)c1ccc(Sc2cc3c(=O)nc(-n4cc(C(=O)O)cn4)[nH]c3cc2Cl)cc1 [Example 24, 1-[6-(4-tert-Butyl-phenylsulfanyl)-7-chloro-4-oxo-1,4-dihydro-quinazolin-2-yl]-1H-pyrazole-4-carboxylic acid]	25.1	50
O=C(O)c1cnn(-c2nc3ccc(-c4ccccc4)cc3c(=O)[nH]2)c1 [Example 106, 1-(4-oxo-6-phenyl-3,4-dihydro-quinazolin-2-yl)-1H-pyrazole-4-carboxylic acid]	31.6	129
O=C(O)c1cnn(-c2nc3ccc4[nH]ccc4c3c(=O)[nH]2)c1 [Example 23, 1-(1-Oxo-2,7-dihydro-1H-pyrrolo[3,2-f]quinazolin-3-yl)-1H-pyrazole-4-carboxylic acid]	158	33
O=C(O)c1cnn(-c2nc3cccc(Cl)c3c(=O)[nH]2)c1 [Example 6, 1-(5-Chloro-4-oxo-3,4-dihydro-quinazolin-2-yl)-1H-pyrazole-4-carboxylic acid]	158	19
O=C(O)c1cnn(-c2nc3cc(Sc4ccc(Cl)cc4)ccc3c(=O)[nH]2)c1 [Example 79, 1-[7-(4-Chloro-phenylsulfanyl)-4-oxo-3,4-dihydro-quinazolin-2-yl]-1H-pyrazole-4-carboxylic acid]	39.8	6
O=C(O)c1cnn(-c2nc3cc(-c4ccccc4Cl)ccc3c(=O)[nH]2)c1 [Example 185, 1-[7-(2-Chloro-phenyl)-4-oxo-3,4-dihydro-quinazolin-2-yl]-1H-pyrazole-4-carboxylic acid]	100	15
N#Cc1ccccc1CNc1ccc2nc(-n3cc(C(=O)O)cn3)[nH]c(=O)c2c1 [Example 177, 1-[6-(2-Cyano-benzylamino)-4-oxo-3,4-dihydro-quinazolin-2-yl]-1H-pyrazole-4-carboxylic acid]	50.1	13
O=C(O)c1cnn(-c2nc3c(Br)cccc3c(=O)[nH]2)c1 [Example 11, 1-(8-Bromo-4-oxo-3,4-dihydro-quinazolin-2-yl)-1H-pyrazole-4-carboxylic acid]	158	40
O=C(O)c1cnn(-c2nc3cc4c(cc3c(=O)[nH]2)OCCCO4)c1 [Example 137, 1-(4-Oxo-3,4,8,9-tetrahydro-7H-6,10-dioxa-1,3-diaza-cyclohepta[b]naphthalen-2-yl)-1H-pyrazole-4-carboxylic acid]	50.1	15

Continued, in another order:

IC50 [2] [nM]	SMILES	Emax at 100 µM [1] [%]
25.1	O=C(O)c1cnn(-c2nc3ccc(-c4ccc5cc[nH]c5c4)cc3c(=O)[nH]2)c1 [Example 108, 1-[6-(1H-Indol-6-yl)-4-oxo-3,4-dihydro-quinazolin-2-yl]-1H-pyrazole-4-carboxylic acid]	85
31.6	O=C(O)c1cnn(-c2nc3cc(Cl)c(Oc4ccc(Cl)cc4)cc3c(=O)[nH]2)c1 [Example 48, 1-[7-Chloro-6-(4-chloro-phenoxy)-4-oxo-3,4-dihydro-quinazolin-2-yl]-1H-pyrazole-4-carboxylic acid]	51
50.1	O=C(O)c1cnn(-c2nc3cc(Br)ccc3c(=O)[nH]2)c1 [Example 134, 1-(7-Bromo-4-oxo-3,4-dihydro-quinazolin-2-yl)-1H-pyrazole-4-carboxylic acid]	18
39.8	O=C(O)c1cnn(-c2nc3ccc(N4CCCC4)cc3c(=O)[nH]2)c1 [Example 123, 1-(4-Oxo-6-pyrrolidin-1-yl-3,4-dihydro-quinazolin-2-yl)-1H-pyrazole-4-carboxylic acid]	17
39.8	O=C(O)c1cnn(-c2nc3ccc4c(c3c(=O)[nH]2)CCCC4)c1 [Example 144, 1-(1-Oxo-1,2,7,8,9,10-hexahydro-benzo[f]quinazolin-3-yl)-1H-pyrazole-4-carboxylic acid]	42
158	CC(C)(C)c1cccc2c(=O)[nH]c(-n3cc(C(=O)O)cn3)nc12 [Example 115, 1-(8-tert-Butyl-4-oxo-3,4-dihydro-quinazolin-2-yl)-1H-pyrazole-4-carboxylic acid]	27
25.1	O=C(O)c1cnn(-c2nc3ccc(I)cc3c(=O)[nH]2)c1 [Example 12, 1-(6-Iodo-4-oxo-3,4-dihydro-quinazolin-2-yl)-1H-pyrazole-4-carboxylic acid]	50
25.1	O=C(O)c1cnn(-c2nc3ccc(Oc4ccccc4)cc3c(=O)[nH]2)c1 [Example 20, 1-(4-Oxo-6-phenoxy-3,4-dihydro-quinazolin-2-yl)-1H-pyrazole-4-carboxylic acid]	104
15.8	CC(C)c1ccc2nc(-n3cc(C(=O)O)cn3)[nH]c(=O)c2c1 [Example 119, 1-(6-Isopropyl-4-oxo-3,4-dihydro-quinazolin-2-yl)-1H-pyrazole-4-carboxylic acid]	115
63.1	O=C(O)c1cnn(-c2nc3cc(S(=O)(=O)c4ccc(Cl)cc4)ccc3c(=O)[nH]2)c1 [Example 82, 1-[7-(4-Chloro-benzenesulfonyl)-4-oxo-3,4-dihydro-quinazolin-2-yl]-1H-pyrazole-4-carboxylic acid]	15
20	Cc1ccccc1CNc1ccc2nc(-n3cc(C(=O)O)cn3)[nH]c(=O)c2c1 [Example 173, 1-[6-(2-Methyl-benzylamino)-4-oxo-3,4-dihydro-quinazolin-2-yl]-1H-pyrazole-4-carboxylic acid]	101
20	Cc1cc(C)cc(Oc2cc3c(=O)[nH]c(-n4cc(C(=O)O)cn4)nc3cc2F)c1 [Example 94, 1-[6-(3,5-dimethyl-phenoxy)-7-fluoro-4-oxo-3,4-dihydro-quinazolin-2-yl]-1 H-pyrazole-4-carboxylic acid]	90
25.1	O=C(O)c1cnn(-c2nc3ccc(Oc4cccc(Cl)c4)cc3c(=O)[nH]2)c1 [Example 30, 1-[6-(3-Chloro-phenoxy)-4-oxo-3,4-dihydro-quinazolin-2-yl]-1H-pyrazole-4-carboxylic acid]	15
200	O=C(O)c1cnn(-c2nc3c(F)ccc(F)c3c(=O)[nH]2)c1 [Example 116, 1-(5,8-Difluoro-4-oxo-3,4-dihydro-quinazolin-2-yl)-1H-pyrazole-4-carboxylic acid]	17
